Drawing on BindingDB's records for doi:10.1002/syn.890150302 (Vanderbilt University, 1993), this text covers Ki for nine compounds.

By Ki is commonly meant the equilibrium dissociation constant of an inhibitor or competing ligand from its target. Read a high Ki as a looser hold on the target.

“And” between values parts separate entries of the source, which are not always exact repeats. Equal entries are not always repeated.

The target in this assay is D(2) dopamine receptor (Rattus norvegicus, UniProt P61169).
Chain of D(2) dopamine receptor (P61169 whole entry): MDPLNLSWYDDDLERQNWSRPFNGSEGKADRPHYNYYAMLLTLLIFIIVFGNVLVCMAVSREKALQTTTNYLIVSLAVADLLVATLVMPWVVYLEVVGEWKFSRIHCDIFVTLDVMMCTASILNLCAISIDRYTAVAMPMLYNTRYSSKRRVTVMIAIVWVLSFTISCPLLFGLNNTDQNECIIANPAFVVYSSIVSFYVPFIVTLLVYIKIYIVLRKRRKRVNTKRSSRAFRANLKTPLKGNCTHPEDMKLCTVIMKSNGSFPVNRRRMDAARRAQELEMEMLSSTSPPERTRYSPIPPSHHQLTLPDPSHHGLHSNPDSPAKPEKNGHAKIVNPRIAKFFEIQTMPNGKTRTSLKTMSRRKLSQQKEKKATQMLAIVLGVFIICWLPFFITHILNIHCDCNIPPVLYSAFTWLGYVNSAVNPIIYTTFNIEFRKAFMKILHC

Compound `CN1CCc2cc3c(cc2[C@H]1[C@@H]1OC(=O)c2c1ccc1c2OCO1)OCO3` [(R)-6-((S)-6-methyl-5,6,7,8-tetrahydro-[1,3]dioxolo[4,5-g]isoquinolin-5-yl)isobenzofuro[5,4-d][1,3]dioxol-8(6H)-one] yielded a Ki of over 10 µM.
For `O=C(c1ccc(F)cc1)C1CCN(CCn2c(=O)[nH]c3ccccc3c2=O)CC1` [3-(2-{4-[(4-fluorophenyl)carbonyl]piperidin-1-yl}ethyl)-1,2,3,4-tetrahydroquinazoline-2,4-dione] the value was 0.555 µM and 0.519 µM.
Then `C=CCN1CC[C@]2(C)c3cc(O)ccc3C[C@@H]1[C@@H]2C` [SKF 10,047 (-)], with over 10 µM; and `CN1[C@@H]2CC[C@H]1C[C@@H](OC(=O)c1cc(Cl)cc(Cl)c1)C2` [TROPANYL 3,5-DICHLOROBENZOATE], with over 10 µM.
On to `C=CCc1ccccc1OC[C@@H](O)CNC(C)C` [ALPRENOLOL,(-)], for which the Ki is > 10 µM and 6.86 µM.
Then `c1ccc2c(c1)OCC(C1=NCCN1)O2` (centres undefined), with over 10 µM.
For `CCN1CCC[C@H]1CNC(=O)c1cc(I)cc(OC)c1OC` the value was 0.0001 µM and 0.00012 µM.
In the case of `NCc1cc(=O)[nH]o1`, the Ki is over 10 µM.
Then `COc1cc2nc(N3CCN(C(=O)c4ccco4)CC3)nc(N)c2cc1OC` [[3H]-Minipress], with over 10 µM.
